From patent US9006221B2, “Method of modulating ship activity” (H. Lee Moffitt Cancer Center and Reserach Institute, Inc., priority 2008, dated 2015)

Tests used:
KG-1 AML cells = experiment: MTT cell viability assay, KG1; assay type: cell-based, human; conditions: KG-1, expresses SHIP1, 36 hours
Protocol: (§1) (A) SHIP1 expression in KG1 and MG63 cells was determined by Western blotting (top). Membranes were reprobed with antibodies against b-actin to confirm equal loading (lower panel). One representative blot of 2 individual experiments is shown. (B) KG1 and MG63 cells were plated in duplicate in 96 well plates, and treated for 36 hours with increasing concentrations of the 3α-aminocholestane. Cell viability was assessed by MTT assay. Results represent the mean of three individual experiments. (C) KG1 cells were treated with increasing concentrations of 3α-aminocholestane for 36 hours and hallmarks of apoptosis were identified in cell lysates by Western Blot analysis. […] (D) KG1 cells were treated with increasing concentrations of 3α-aminocholestane, and the percentage of AnnexinV and PI positive cells was determined by FACS analysis. […]
(§2) Cell viability assay: Cells were treated in duplicate for 36 hours with increasing concentrations of 3α-aminocholestane or vehicle. […] Formed crystals were dissolved in dimethyl sulfoxide and optical density (OD) was measured at 570 nm. The OD of compound treated cells was divided by the OD of their vehicle control, and the viability was expressed as a percentage of untreated cells. Results are expressed as mean±SEM of three individual experiments.

MG63 cells = experiment: MTT cell viability assay, MG63; assay type: cell-based; conditions: MG63, lacks SHIP1 expression, 36 hours
Protocol: as §1, §2

KG1 cells = experiment: Apoptosis of KG1 cells (Western blot, Annexin V/PI FACS); assay type: cell-based, human
Protocol: (A) SHIP1 expression in KG1 and MG63 cells was determined by Western blotting (top). Membranes were reprobed with antibodies against b-actin to confirm equal loading (lower panel). One representative blot of 2 individual experiments is shown. (B) KG1 and MG63 cells were plated in duplicate in 96 well plates, and treated for 36 hours with increasing concentrations of the 3α-aminocholestane. Cell viability was assessed by MTT assay. Results represent the mean of three individual experiments. (C) KG1 cells were treated with increasing concentrations of 3α-aminocholestane for 36 hours and hallmarks of apoptosis were identified in cell lysates by Western Blot analysis. Membranes were probed with antibodies against PARP and cleaved PARP (cPARP, upper panel) and cleaved Caspase 3 (cCaspase 3, middle panel). Equal protein loading was confirmed by reprobing the blots with anti-b-actin antibodies (lower panel). A representative example of 2 independent experiments is shown. (D) KG1 cells were treated with increasing concentrations of 3α-aminocholestane, and the percentage of AnnexinV and PI positive cells was determined by FACS analysis. A representative example of 2 individual experiments is shown.
It was a concern that SHIP1 inhibitors might potentially enhance the survival and growth of blood cell cancers. Conversely, as discussed above, SHIP1 inhibition could also […] Akt activation and therefore might also antagonize the survival of malignant blood cells. The two possibilities were tested by treating the AML cell line (KG-1) that expresses SHIP1 (FIG. 17a) with 3α-aminocholestane. […]
Preparation of cell lysates and Western blotting: Cells were counted, centrifuged and resuspended in Laemmli sample buffer. […]
Annexin V staining Annexin V/Propidium Iodide (PI) staining was performed using the Annexin V-FITC apoptosis detection kit from BD Pharmingen (Sharon, Mass.) per the manufacturer's instructions. […] Fluorescence was determined by flow cytometry (LSR II, Becton Dickinson Medical Systems, Sharon, Mass.).

SHIP1 = target: T1, SHIP1 (Mus musculus, UniProt Q9ES52); experiment: Fluorescence polarization (FP) assay of SHIP1 enzymatic activity; assay type: biochemical; conditions: 0.1 μg of recombinant SHIP1, FP assay
T1 construct: The asterisk in lanes 1 and 3 indicates the ˜145 kD full-length SHIP protein; His tag (C); made in house; host or cells: E. coli Rosetta-Gami 2 (DE3) pLys
T1 sequence (Q9ES52 1-1191): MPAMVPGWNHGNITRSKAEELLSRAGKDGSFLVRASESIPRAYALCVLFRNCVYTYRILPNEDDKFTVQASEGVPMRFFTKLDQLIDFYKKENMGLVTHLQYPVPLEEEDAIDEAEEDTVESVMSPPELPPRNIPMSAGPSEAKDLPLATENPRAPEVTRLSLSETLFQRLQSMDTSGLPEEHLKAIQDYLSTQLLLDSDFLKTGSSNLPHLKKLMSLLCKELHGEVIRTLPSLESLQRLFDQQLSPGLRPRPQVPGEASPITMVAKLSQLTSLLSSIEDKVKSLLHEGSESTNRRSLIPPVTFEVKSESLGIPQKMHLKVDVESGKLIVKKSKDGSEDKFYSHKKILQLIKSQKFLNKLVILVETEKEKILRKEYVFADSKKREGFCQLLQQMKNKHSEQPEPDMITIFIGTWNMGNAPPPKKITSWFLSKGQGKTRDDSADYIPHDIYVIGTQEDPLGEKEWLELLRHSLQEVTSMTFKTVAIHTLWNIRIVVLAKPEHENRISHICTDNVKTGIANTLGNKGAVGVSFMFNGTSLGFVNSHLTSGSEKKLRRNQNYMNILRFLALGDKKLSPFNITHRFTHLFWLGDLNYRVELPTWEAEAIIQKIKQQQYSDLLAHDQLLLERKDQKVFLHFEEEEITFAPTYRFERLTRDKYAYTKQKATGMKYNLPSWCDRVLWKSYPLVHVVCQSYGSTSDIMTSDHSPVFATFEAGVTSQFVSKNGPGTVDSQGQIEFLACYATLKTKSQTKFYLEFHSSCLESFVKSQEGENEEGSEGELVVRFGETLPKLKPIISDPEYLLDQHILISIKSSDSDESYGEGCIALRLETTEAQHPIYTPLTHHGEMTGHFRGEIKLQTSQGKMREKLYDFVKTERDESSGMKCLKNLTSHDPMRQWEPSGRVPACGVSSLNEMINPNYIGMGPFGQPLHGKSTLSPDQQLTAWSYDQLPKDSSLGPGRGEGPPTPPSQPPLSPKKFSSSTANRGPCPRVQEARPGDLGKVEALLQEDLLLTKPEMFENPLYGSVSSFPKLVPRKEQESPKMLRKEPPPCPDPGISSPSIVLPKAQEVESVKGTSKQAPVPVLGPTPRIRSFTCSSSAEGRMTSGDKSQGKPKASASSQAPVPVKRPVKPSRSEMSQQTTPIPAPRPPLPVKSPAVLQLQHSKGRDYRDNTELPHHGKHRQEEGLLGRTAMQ

CC(C)CCC[C@@H](C)[C@H]1CC[C@H]2[C@@H]3CC[C@H]4C[C@H](N)CC[C@]4(C)[C@H]3CC[C@]12C [NSC23922, (3R,5S,8R,9S,10S,13R,14S,17R)-10,13-dimethyl-17-[(2R)-6-methylheptan-2-yl]-2,3,4,5,6,7,8,9,11,12,14,15,16,17-tetradecahydro-1H-cyclopenta[a]phenanthren-3-amine]
growth and survival of cells (MTT viability) (KG-1 AML cells): decreases the growth and survival
growth and survival of cells (MTT viability) (MG63 cells): not in cells that lacks SHIP1 expression
frequency of AnnexinV+ cells (KG1 cells; KG1, 36 hours, FACS): increased frequency
cleavage of PARP and Caspase 3 (KG1 cells; KG1, 36 hours, Western blot): increased cleavage
activation of Akt/PKB (KG1 cells; KG1, Western blot): decreased activation
inhibition at 10 µM (SHIP1): 50%
